Laboratory results taken from US20090105270A1, “Kinase inhibition and anticancer therapy” (priority 2007, published 2009).

Tests used:
HIPK3(h) = HIPK3(h) (Homo sapiens, UniProt Q9H422); assay: Upstate kinase activity inhibition assay HIPK3(h); conditions: 40 min, read-out: percentage of enzyme activity that remains
Plk3(h) = Plk3(h) (Homo sapiens, UniProt Q9H4B4); assay: Upstate kinase activity inhibition assay Plk3(h); conditions: 40 min, read-out: percentage of enzyme activity that remains
EphA1(h) = EphA1(h) (Homo sapiens, UniProt P21709); assay: Upstate kinase activity inhibition assay EphA1(h); conditions: 40 min, read-out: percentage of enzyme activity that remains
EGFR(L858R)(h) = target: T1, EGFR(L858R)(h) (Homo sapiens, UniProt P00533, L858R); assay: Upstate kinase activity inhibition assay EGFR(L858R)(h); assay type: biochemical; conditions: 4 μM Compound E
T1 construct: purchased Upstate (KinaseProfiler service)

PKCι(h) = PKCι(h) (Homo sapiens, UniProt P41743); assay: Upstate kinase activity inhibition assay PKCι(h); assay type: biochemical; conditions: 40 min; read-out: percentage of enzyme activity that remains
CDK1/cyclinB(h) = CDK1/cyclinB(h) (Homo sapiens, UniProt P06493); assay: Upstate kinase activity inhibition assay CDK1/cyclinB(h); conditions: 40 min, read-out: percentage of enzyme activity that remains
GSK3α(h) = GSK3α(h) (Homo sapiens, UniProt P49840); assay: Upstate kinase activity inhibition assay GSK3α(h); conditions: 40 min, read-out: percentage of enzyme activity that remains
BRK(h) = BRK(h) (Homo sapiens, UniProt Q13882); assay: Upstate kinase activity inhibition assay BRK(h); conditions: 40 min, read-out: percentage of enzyme activity that remains
Syk(h) = Syk(h) (Homo sapiens, UniProt P43405); assay: Upstate kinase activity inhibition assay Syk(h)
PKCγ(h) = target: T2, PKCγ(h) (Homo sapiens, UniProt P05129); assay: Upstate kinase activity inhibition assay PKCγ(h); assay type: biochemical; conditions: 40 min; read-out: percentage of enzyme activity that remains
T2 construct: purchased Upstate (KinaseProfiler service)

RIPK2(h) = RIPK2(h) (Homo sapiens, UniProt O43353); assay: Upstate kinase activity inhibition assay RIPK2(h); conditions: 40 min, read-out: percentage of enzyme activity that remains
ROCK-I(h) = ROCK-I(h) (Homo sapiens, UniProt Q13464); assay: Upstate kinase activity inhibition assay ROCK-I(h); conditions: 40 min, read-out: percentage of enzyme activity that remains
NEK3(h) = NEK3(h) (Homo sapiens, UniProt P51956); assay: Upstate kinase activity inhibition assay NEK3(h); conditions: 40 min, read-out: percentage of enzyme activity that remains
Axl(h) = target: T3, Axl(h) (Homo sapiens, UniProt P30530); assay: Upstate kinase activity inhibition assay Axl(h); assay type: biochemical; conditions: 40 min; read-out: percentage of enzyme activity that remains
T3 construct: purchased Upstate (KinaseProfiler service)

Flt4(h) = Flt4(h) (Homo sapiens, UniProt P35916); assay: Upstate kinase activity inhibition assay Flt4(h); conditions: 40 min, read-out: percentage of enzyme activity that remains
PKCζ(h) = PKCζ(h) (Homo sapiens, UniProt Q05513); assay: Upstate kinase activity inhibition assay PKCζ(h); conditions: 40 min, read-out: percentage of enzyme activity that remains
Rsk3(h) = Rsk3(h) (Homo sapiens, UniProt Q15349); assay: Upstate kinase activity inhibition assay Rsk3(h); conditions: 40 min, read-out: percentage of enzyme activity that remains
CHK2(h) = CHK2(h) (Homo sapiens, UniProt O96017); assay: Upstate kinase activity inhibition assay CHK2(h); conditions: 40 min, read-out: percentage of enzyme activity that remains
c-RAF(h) = target: T4, c-RAF(h) (Homo sapiens, UniProt P04049, Y340D/Y341D); assay: Upstate kinase activity inhibition assay c-RAF(h); assay type: biochemical; conditions: 40 min; read-out: percentage of enzyme activity that remains
T4 construct: purchased Upstate (KinaseProfiler service)

CDK6/cyclinD3(h) = target: T5, CDK6/cyclinD3(h) (Homo sapiens, UniProt Q00534); assay: Upstate kinase activity inhibition assay CDK6/cyclinD3(h); assay type: biochemical; conditions: 40 min; read-out: percentage of enzyme activity that remains
T5 construct: purchased Upstate (KinaseProfiler service)

SGK(h) = target: T6, SGK(h) (Homo sapiens, UniProt O00141, S422D); assay: Upstate kinase activity inhibition assay SGK(h); assay type: biochemical; conditions: 40 min; read-out: percentage of enzyme activity that remains
T6 construct: purchased Upstate (KinaseProfiler service)

PAK4(h) = PAK4(h) (Homo sapiens, UniProt O96013); assay: Upstate kinase activity inhibition assay PAK4(h); conditions: 40 min, read-out: percentage of enzyme activity that remains
EphA5(h) = target: T7, EphA5(h) (Homo sapiens, UniProt P54756); assay: Upstate kinase activity inhibition assay EphA5(h); assay type: biochemical; conditions: 4 μM Compound E
T7 construct: purchased Upstate (KinaseProfiler service)

MRCKβ(h) = target: T8, MRCKβ(h) (Homo sapiens, UniProt Q9Y5S2); assay: Upstate kinase activity inhibition assay MRCKβ(h); assay type: biochemical; conditions: 40 min; read-out: percentage of enzyme activity that remains
T8 construct: purchased Upstate (KinaseProfiler service)

DDR2(h) = target: T9, DDR2(h) (Homo sapiens, UniProt Q16832); assay: Upstate kinase activity inhibition assay DDR2(h); assay type: biochemical; conditions: 40 min; read-out: percentage of enzyme activity that remains
T9 construct: purchased Upstate (KinaseProfiler service)

Rsk2(h) = Rsk2(h) (Homo sapiens, UniProt P51812); assay: Upstate kinase activity inhibition assay Rsk2(h); conditions: 40 min, read-out: percentage of enzyme activity that remains
MuSK(h) = MuSK(h) (Homo sapiens, UniProt O15146); assay: Upstate kinase activity inhibition assay MuSK(h); conditions: 40 min, read-out: percentage of enzyme activity that remains
JAK3(h) = JAK3(h) (Homo sapiens, UniProt P52333); assay: Upstate kinase activity inhibition assay JAK3(h); conditions: 40 min, read-out: percentage of enzyme activity that remains
CK2(h) = CK2(h) (Homo sapiens, UniProt P68400); assay: Upstate kinase activity inhibition assay CK2(h); conditions: 40 min, read-out: percentage of enzyme activity that remains

Chain of GSK3α(h) (P49840 whole entry): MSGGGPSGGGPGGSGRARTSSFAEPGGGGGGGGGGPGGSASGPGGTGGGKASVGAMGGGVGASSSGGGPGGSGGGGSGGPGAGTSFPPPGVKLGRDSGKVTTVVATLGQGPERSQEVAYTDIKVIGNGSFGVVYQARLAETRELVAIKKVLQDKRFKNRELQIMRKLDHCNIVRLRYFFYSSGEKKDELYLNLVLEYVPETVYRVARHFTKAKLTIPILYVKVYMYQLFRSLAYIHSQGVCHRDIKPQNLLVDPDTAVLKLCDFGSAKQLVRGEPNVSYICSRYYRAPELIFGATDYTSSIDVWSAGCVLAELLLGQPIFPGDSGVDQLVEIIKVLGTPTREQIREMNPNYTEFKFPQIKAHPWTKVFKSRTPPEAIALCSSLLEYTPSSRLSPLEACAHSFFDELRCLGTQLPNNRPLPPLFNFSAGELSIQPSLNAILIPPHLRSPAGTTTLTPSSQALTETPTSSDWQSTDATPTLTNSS
Chain of RIPK2(h) (O43353 whole entry): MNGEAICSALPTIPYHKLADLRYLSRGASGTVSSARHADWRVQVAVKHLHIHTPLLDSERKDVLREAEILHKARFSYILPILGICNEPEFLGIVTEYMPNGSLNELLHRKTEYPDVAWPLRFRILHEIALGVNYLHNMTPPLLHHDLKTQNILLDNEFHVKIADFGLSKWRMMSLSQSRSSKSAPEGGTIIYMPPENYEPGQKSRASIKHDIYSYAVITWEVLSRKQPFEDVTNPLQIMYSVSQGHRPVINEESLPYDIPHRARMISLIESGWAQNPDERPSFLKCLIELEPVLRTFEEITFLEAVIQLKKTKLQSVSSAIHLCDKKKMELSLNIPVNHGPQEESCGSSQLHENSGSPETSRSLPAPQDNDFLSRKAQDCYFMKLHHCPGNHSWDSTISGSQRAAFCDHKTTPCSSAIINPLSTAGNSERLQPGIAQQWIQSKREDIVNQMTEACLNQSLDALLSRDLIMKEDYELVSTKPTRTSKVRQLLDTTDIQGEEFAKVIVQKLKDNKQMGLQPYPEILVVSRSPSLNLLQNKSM
Chain of MuSK(h) (O15146 24-869): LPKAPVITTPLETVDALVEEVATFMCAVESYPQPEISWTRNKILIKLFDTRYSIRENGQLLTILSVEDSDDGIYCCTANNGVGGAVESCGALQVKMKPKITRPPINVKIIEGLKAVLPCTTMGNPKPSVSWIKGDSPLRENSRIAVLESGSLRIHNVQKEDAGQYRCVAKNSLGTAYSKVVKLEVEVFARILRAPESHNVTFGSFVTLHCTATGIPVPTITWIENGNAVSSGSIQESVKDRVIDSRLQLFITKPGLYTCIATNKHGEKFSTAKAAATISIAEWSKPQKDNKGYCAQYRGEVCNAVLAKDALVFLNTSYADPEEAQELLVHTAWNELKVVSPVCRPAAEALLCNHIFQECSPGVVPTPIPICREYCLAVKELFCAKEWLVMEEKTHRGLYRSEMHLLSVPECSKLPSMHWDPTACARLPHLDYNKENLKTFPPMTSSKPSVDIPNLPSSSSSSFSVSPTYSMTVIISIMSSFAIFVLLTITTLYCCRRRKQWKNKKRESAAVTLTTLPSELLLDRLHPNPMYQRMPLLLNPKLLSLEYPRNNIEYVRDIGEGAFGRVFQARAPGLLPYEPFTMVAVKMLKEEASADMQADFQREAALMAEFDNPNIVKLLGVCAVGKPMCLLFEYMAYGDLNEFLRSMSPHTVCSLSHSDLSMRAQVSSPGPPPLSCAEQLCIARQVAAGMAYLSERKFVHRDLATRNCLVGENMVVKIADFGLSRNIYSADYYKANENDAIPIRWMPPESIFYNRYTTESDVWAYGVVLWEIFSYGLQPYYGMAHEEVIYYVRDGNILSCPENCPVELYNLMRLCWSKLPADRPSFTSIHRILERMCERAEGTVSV
T6 sequence (O00141 60-431 S422D limits assumed): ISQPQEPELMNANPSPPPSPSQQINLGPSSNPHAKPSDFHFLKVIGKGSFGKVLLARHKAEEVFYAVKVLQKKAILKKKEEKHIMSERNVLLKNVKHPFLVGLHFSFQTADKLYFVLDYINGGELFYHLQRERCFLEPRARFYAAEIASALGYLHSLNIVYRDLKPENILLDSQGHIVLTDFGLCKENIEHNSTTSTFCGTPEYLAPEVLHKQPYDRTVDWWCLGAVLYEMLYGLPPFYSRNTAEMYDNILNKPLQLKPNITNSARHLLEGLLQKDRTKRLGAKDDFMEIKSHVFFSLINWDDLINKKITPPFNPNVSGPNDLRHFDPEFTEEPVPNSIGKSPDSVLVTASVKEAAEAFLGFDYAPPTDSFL
Chain of ROCK-I(h) (Q13464 whole entry): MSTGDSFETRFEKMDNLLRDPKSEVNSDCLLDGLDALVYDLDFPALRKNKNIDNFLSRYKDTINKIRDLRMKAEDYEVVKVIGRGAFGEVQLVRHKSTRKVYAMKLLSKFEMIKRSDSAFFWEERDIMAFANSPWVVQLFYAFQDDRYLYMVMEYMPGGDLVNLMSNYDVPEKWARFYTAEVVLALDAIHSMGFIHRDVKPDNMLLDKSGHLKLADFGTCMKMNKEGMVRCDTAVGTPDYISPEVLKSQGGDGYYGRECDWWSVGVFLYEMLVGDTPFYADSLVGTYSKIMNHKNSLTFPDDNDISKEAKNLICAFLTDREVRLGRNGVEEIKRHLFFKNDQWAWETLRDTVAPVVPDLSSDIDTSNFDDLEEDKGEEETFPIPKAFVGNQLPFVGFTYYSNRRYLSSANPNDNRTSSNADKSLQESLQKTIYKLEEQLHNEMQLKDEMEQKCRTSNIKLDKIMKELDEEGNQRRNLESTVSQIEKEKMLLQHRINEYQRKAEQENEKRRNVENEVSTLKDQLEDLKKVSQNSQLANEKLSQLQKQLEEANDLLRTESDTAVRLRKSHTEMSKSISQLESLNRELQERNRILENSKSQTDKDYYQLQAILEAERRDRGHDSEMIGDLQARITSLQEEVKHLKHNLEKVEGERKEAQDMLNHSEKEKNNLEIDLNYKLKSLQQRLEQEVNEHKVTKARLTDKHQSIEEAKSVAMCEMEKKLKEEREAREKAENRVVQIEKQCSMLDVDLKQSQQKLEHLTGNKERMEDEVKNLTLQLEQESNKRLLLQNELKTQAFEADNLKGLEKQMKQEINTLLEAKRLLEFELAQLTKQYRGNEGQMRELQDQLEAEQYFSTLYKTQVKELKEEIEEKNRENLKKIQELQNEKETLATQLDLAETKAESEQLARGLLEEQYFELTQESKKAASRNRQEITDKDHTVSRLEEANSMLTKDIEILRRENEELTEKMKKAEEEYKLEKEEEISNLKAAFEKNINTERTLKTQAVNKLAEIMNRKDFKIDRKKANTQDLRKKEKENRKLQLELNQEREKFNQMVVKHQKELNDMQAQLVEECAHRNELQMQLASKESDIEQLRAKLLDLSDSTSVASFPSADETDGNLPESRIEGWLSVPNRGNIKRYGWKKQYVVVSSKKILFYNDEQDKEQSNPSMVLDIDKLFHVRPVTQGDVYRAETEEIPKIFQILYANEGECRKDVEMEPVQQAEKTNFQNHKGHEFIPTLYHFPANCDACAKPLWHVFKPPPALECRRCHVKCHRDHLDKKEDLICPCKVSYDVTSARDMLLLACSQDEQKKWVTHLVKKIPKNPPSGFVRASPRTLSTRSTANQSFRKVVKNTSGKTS
Chain of HIPK3(h) (Q9H422 whole entry): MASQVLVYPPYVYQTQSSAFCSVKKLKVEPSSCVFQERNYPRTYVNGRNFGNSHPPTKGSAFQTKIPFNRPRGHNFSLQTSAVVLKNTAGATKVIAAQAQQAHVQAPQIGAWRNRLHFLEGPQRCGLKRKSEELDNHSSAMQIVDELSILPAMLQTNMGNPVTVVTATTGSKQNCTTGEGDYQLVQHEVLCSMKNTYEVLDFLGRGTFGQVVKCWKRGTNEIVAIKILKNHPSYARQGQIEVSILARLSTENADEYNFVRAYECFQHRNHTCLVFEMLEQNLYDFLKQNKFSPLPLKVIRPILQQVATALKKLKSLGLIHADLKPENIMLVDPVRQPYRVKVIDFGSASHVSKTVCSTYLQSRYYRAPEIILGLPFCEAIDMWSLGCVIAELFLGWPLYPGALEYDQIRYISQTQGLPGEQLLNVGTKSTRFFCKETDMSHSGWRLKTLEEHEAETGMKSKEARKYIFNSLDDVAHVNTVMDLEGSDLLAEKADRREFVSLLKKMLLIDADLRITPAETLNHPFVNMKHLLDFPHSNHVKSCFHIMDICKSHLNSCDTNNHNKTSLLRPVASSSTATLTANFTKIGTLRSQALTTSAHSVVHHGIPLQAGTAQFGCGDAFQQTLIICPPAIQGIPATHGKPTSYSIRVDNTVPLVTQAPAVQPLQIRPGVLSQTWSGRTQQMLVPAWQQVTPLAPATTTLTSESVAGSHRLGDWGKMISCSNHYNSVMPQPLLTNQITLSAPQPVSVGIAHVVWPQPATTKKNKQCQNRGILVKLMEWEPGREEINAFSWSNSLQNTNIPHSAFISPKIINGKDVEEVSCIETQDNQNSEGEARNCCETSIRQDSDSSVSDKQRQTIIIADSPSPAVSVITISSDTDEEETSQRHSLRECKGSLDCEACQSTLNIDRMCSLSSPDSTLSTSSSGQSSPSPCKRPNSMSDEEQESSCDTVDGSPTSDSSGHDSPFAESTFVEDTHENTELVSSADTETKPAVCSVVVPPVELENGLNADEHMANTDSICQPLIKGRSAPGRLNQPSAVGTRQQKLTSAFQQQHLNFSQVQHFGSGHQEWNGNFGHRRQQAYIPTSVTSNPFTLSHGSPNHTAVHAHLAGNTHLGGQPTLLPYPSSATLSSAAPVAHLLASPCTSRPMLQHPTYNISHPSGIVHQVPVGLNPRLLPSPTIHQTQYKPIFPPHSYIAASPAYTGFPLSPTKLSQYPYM

Q: For `Cc1cc(Nc2cc(N3CCN(C)CC3)nc(Sc3ccc(NC(=O)C4CC4)cc3)n2)n[nH]1` [Compound E, Cyclopropane carboxylic acid {4-[4-(4-methyl-piperazin-1-yl)-6-(5-methyl-2H-pyrazol-3-ylamino)-pyrimidin-2-ylsulphanyl]-phenyl}-amide], which remaining activity at 0.2 µM (HIPK3(h)) is on record?
A: The remaining activity at 0.2 µM was 112%.

Q: What about the remaining activity at 4 µM (HIPK3(h)) of the same compound?
A: The remaining activity at 4 µM was 95%.

Q: What about the remaining activity at 0.2 µM (Plk3(h)) of the same compound?
A: Its remaining activity at 0.2 µM is 107%.

Q: And the remaining activity at 4 µM (Plk3(h))?
A: Its remaining activity at 4 µM is 105%.

Q: What about the remaining activity at 0.2 µM (EphA1(h)) of the same compound?
A: Its remaining activity at 0.2 µM is 93%.

Q: What about the remaining activity at 4 µM (EphA1(h)) of the same compound?
A: Its remaining activity at 4 µM is 27%.

Q: What about the “percentage of enzyme activity that remains” value (EGFR(L858R)(h)) of the same compound?
A: The value was 77%.

Q: What about the remaining activity at 0.2 µM (PKCι(h)) of the same compound?
A: Its remaining activity at 0.2 µM is 100%.

Q: And the remaining activity at 4 µM (PKCι(h))?
A: The remaining activity at 4 µM was 78%.

Q: What about the remaining activity at 0.2 µM (CDK1/cyclinB(h)) of the same compound?
A: The remaining activity at 0.2 µM was 108%.

Q: What about the remaining activity at 4 µM (CDK1/cyclinB(h)) of the same compound?
A: Its remaining activity at 4 µM is 102%.

Q: And the remaining activity at 0.2 µM (GSK3α(h))?
A: Its remaining activity at 0.2 µM is 106%.

Q: And the remaining activity at 4 µM (GSK3α(h))?
A: The remaining activity at 4 µM was 102%.

Q: And the remaining activity at 0.2 µM (BRK(h))?
A: The remaining activity at 0.2 µM was 102%.

Q: And the remaining activity at 4 µM (BRK(h))?
A: The remaining activity at 4 µM was 83%.

Q: And the “percentage of enzyme activity that remains” value (Syk(h); 0.2 μM Compound E)?
A: Its value is 113%.

Q: What about the “percentage of enzyme activity that remains” value (Syk(h); 4 μM Compound E) of the same compound?
A: The value was 63%.

Q: What about the remaining activity at 0.2 µM (PKCγ(h)) of the same compound?
A: The remaining activity at 0.2 µM was 96%.

Q: What about the remaining activity at 4 µM (PKCγ(h)) of the same compound?
A: The remaining activity at 4 µM was 82%.

Q: What about the remaining activity at 0.2 µM (RIPK2(h)) of the same compound?
A: Its remaining activity at 0.2 µM is 107%.

Q: What about the remaining activity at 4 µM (RIPK2(h)) of the same compound?
A: Its remaining activity at 4 µM is 105%.

Q: What about the remaining activity at 0.2 µM (ROCK-I(h)) of the same compound?
A: Its remaining activity at 0.2 µM is 99%.

Q: What about the remaining activity at 4 µM (ROCK-I(h)) of the same compound?
A: Its remaining activity at 4 µM is 91%.

Q: What about the remaining activity at 0.2 µM (NEK3(h)) of the same compound?
A: Its remaining activity at 0.2 µM is 102%.

Q: And the remaining activity at 4 µM (NEK3(h))?
A: Its remaining activity at 4 µM is 125%.

Q: And the remaining activity at 0.2 µM (Axl(h))?
A: The remaining activity at 0.2 µM was 79%.

Q: And the remaining activity at 4 µM (Axl(h))?
A: Its remaining activity at 4 µM is 19%.

Q: What about the remaining activity at 4 µM (Flt4(h)) of the same compound?
A: The remaining activity at 4 µM was 10%.

Q: What about the remaining activity at 0.2 µM (PKCζ(h)) of the same compound?
A: Its remaining activity at 0.2 µM is 107%.

Q: And the remaining activity at 4 µM (PKCζ(h))?
A: The remaining activity at 4 µM was 97%.

Q: What about the remaining activity at 0.2 µM (Rsk3(h)) of the same compound?
A: The remaining activity at 0.2 µM was 96%.

Q: What about the remaining activity at 4 µM (Rsk3(h)) of the same compound?
A: Its remaining activity at 4 µM is 60%.

Q: And the remaining activity at 0.2 µM (CHK2(h))?
A: The remaining activity at 0.2 µM was 99%.

Q: What about the remaining activity at 4 µM (CHK2(h)) of the same compound?
A: The remaining activity at 4 µM was 89%.

Q: What about the remaining activity at 0.2 µM (c-RAF(h)) of the same compound?
A: The remaining activity at 0.2 µM was 106%.

Q: And the remaining activity at 4 µM (c-RAF(h))?
A: Its remaining activity at 4 µM is 100%.

Q: And the remaining activity at 0.2 µM (CDK6/cyclinD3(h))?
A: Its remaining activity at 0.2 µM is 103%.

Q: What about the remaining activity at 4 µM (CDK6/cyclinD3(h)) of the same compound?
A: The remaining activity at 4 µM was 97%.

Q: What about the remaining activity at 0.2 µM (SGK(h)) of the same compound?
A: The remaining activity at 0.2 µM was 113%.

Q: What about the remaining activity at 4 µM (SGK(h)) of the same compound?
A: The remaining activity at 4 µM was 109%.

Q: What about the remaining activity at 0.2 µM (PAK4(h)) of the same compound?
A: The remaining activity at 0.2 µM was 85%.

Q: And the remaining activity at 4 µM (PAK4(h))?
A: The remaining activity at 4 µM was 75%.

Q: And the “percentage of enzyme activity that remains” value (EphA5(h))?
A: Its value is 57%.

Q: And the remaining activity at 4 µM (MRCKβ(h))?
A: Its remaining activity at 4 µM is 100%.

Q: And the remaining activity at 0.2 µM (DDR2(h))?
A: The remaining activity at 0.2 µM was 100%.

Q: What about the remaining activity at 0.2 µM (Rsk2(h)) of the same compound?
A: Its remaining activity at 0.2 µM is 109%.

Q: What about the remaining activity at 4 µM (Rsk2(h)) of the same compound?
A: The remaining activity at 4 µM was 82%.

Q: What about the remaining activity at 0.2 µM (MuSK(h)) of the same compound?
A: The remaining activity at 0.2 µM was 89%.

Q: What about the remaining activity at 4 µM (MuSK(h)) of the same compound?
A: Its remaining activity at 4 µM is 8%.

Q: What about the remaining activity at 0.2 µM (JAK3(h)) of the same compound?
A: The remaining activity at 0.2 µM was 107%.

Q: What about the remaining activity at 4 µM (JAK3(h)) of the same compound?
A: The remaining activity at 4 µM was 105%.

Q: And the remaining activity at 0.2 µM (CK2(h))?
A: The remaining activity at 0.2 µM was 100%.

Q: And the remaining activity at 4 µM (CK2(h))?
A: Its remaining activity at 4 µM is 93%.
